This is an account of results in patent publication US8404707B2, “Imidazo [1, 2-a] pyrrolo [3, 2-c] pyridine compounds useful as pestivirus inhibitors” (Universite d'Auvergne Clermont 1, priority 2006, dated 2013).

Converted amounts (≈) assume the structure as drawn. Where two headings read alike, the source gives them in different places.

Data set [1] can be described thus: Determination of cytostatic effect on MDBK cells (MTS method). It is filed as cell-based, Bovine. The settings on record: bovine, MDBK cells (exponentially growing), 3 days incubation, 50% cytostatic concentration. The procedure: (§1) Madin-Darbey Bovine Kidney (MDBK) cells were maintained in Dulbecco's modified Eagle medium (DMEM) supplemented with BVDV-free 5% fetal calf serum (DMEME-FCS) at 37° C. in a humidified, 5% CO2 atmosphere. BVDV-1 (strain PE515) was used to assess the antiviral activity in MDBK cells.
(§2) The effect of the drugs on exponentially growing MDBK cells was assessed as follows. Cells were seeded at a density of 5000 cell/well in 96 well plates in MEM medium (Gibco) supplemented with 10% fetal calf serum, 2 mM L-glutamine (Life Technologies) and bicarbonate (Life Technologies). Cells, were cultured for 24 hr after which serial dilutions of the test compounds were added. Cultures were then again further incubated for 3 days after which the effect on cell growth was quantified by means of the MTS method (Promega). The concentration that results in 50% inhibition of cell growth is defined as the 50% cytostatic concentration (CC50)
Background: Formazan colour is commonly taken as a measure of viable cells.

The subject of a further data set is BVDV-1 (strain PE515). Put plainly: Anti-BVDV assay (protection of MDBK cell monolayer from virus-induced cytopathic effect, MTS readout). It is filed as cell-based, Bovine Viral Diarrhea virus. The settings on record: for EC50: Bovine viral diarrhea virus isolates and strains, MDBK, 120 h, BVDV-1 in MDBK cells, 5 days incubation, concentration that protects 50% of the cell monolayer from virus-induced cytopathic effect; for SI: Selectivity index (ratio of CC50 to EC50): CC50 (MDBK cells) / EC50 (BVDV). The procedure:
as §1
Ninety-six-well cell culture plates were seeded with MDBK cells in DMEM-FCS so that cells reached 24 hr later confluency. Then medium was removed and serial 5-fold dilutions of the test compounds were added in a total volume of 100 μl, after which the virus inoculum (100 μl) was added to each well. […] Uninfected cells and cells receiving virus without compound were included in each assay plate. After 5 days, medium was removed and 90 μl of DMEM-FCS and 10 μl of MTS/PMS solution (Promega) was added to each well. Following a 2 hr incubation period at 37° C. the optical density of the wells was read at 498 nm in a microplate reader.
Background: Cytopathic effects are the visible damage that an infection or toxin causes in cultured cells.

A further data set has as its system MDBK cells. As to the kind of experiment: Determination of cytostatic effect on MDBK cells (MTS method). The conditions noted are these: exponentially growing MDBK cells, 3 days incubation; 50% cytostatic concentration. In kind it is cell-based, Bovine. The procedure:
as §1, §2

What is called CC50 is the concentration giving 50% cytotoxicity. Usually EC50 stands for the concentration giving half of the maximal effect. `CC1=Nc2c3cc(-c4ccc(F)cc4)nc-3ccn2C1` [Compound 27b, 8-(4-fluorophenyl)-2-methylimidazo[1,2-a]pyrrolo[3,2-c]pyridine]: the cytotoxic concentration (CC50) at 3 days in data set [1] was 47.5 µg/mL (≈ 179 µM). Also, in the data set with BVDV-1 (strain PE515) (read-out: EC50), the half-maximal effective concentration (EC50) was 1.27 µg/mL (≈ 4.79 µM). The “SI: Selectivity index (ratio of CC50 to EC50)” value in the data set with BVDV-1 (strain PE515) was “±37”.
What is called melting point is the temperature of the solid-liquid transition. `COc1ccc(-c2cc3c4n(ccc-3n2)CC(C)=N4)cc1` gave a melting point of 168 °C.
In the case of `CCOC(=O)c1cc2c3n(ccc-2n1)CC(C(C)C)=N3` [Compound 7f, Ethyl 2-isopropylimidazo[1,2-a]pyrrolo[3,2-c]pyridine-8-carboxylate], the melting point was 207 to 209 °C. The CC50 at 3 days in data set [1] amounted to 22 µg/mL (≈ 81.1 µM). For the same compound, in the data set on BVDV-1 (strain PE515) (read-out: EC50), the EC50 amounted to 0.6 µg/mL (≈ 2.21 µM). In addition, the “SI: Selectivity index (ratio of CC50 to EC50)” value with BVDV-1 (strain PE515) is given as “±36”.
`CCOC(=O)c1cc2c3n(ccc-2n1)CC(c1cccc(OC)c1)=N3` had a melting point of 198 to 200 °C.
Take `CCOC(=O)c1cc2c(ccn3cc(CN(C)C)nc23)[nH]1` [Compound 9, Ethyl 2-N,N dimethylaminomethylimidazo[1,2-a]pyrrolo[3,2-c]pyridine-8-carboxylate]: the EC50 in the data set with BVDV-1 (strain PE515) was 3 µg/mL (≈ 10.5 µM).
For `CCOC(=O)c1cc2c3n(ccc-2n1)CC(C(OCC)OCC)=N3` [Compound 7h, Ethyl 2-diethoxymethylimidazo[1,2-a]pyrrolo[3,2-c]pyridine-8-carboxylate], the melting point was in the range of 242 to 244 °C. In data set [1], this compound gave a CC50 at 3 days of 22 µg/mL (≈ 66.4 µM). For the same compound, the EC50 with BVDV-1 (strain PE515) (read-out: EC50) is 3 µg/mL (≈ 9.05 µM). Also, in the data set with BVDV-1 (strain PE515), the “SI: Selectivity index (ratio of CC50 to EC50)” value is recorded as “±7”.
`CCOC(=O)c1cc2c3n(ccc-2n1)CC(C(F)(F)F)=N3` [Compound 7e, Ethyl 2-trifluoromethylimidazo[1,2-a]pyrrolo[3,2-c]pyridine-8-carboxylate] came in with a melting point of 230 to 231 °C. The CC50 at 3 days in data set [1] was greater than 50 µg/mL. In the data set on BVDV-1 (strain PE515), the concentration giving a half-maximal response (EC50) is 1.5 µg/mL (≈ 5.05 µM) and the “SI: Selectivity index (ratio of CC50 to EC50)” value is listed as “±33”.
Take `CCOC(=O)n1c(-c2ccc(F)cc2)cc2c1ccn1cc(C)nc21` [Compound 26b, Ethyl 8-(4-fluorophenyl)-2-methylimidazo[1,2-a]pyrrolo[3,2-c]pyridine-7-carboxylate]: the melting point came out at 175 °C. This compound yielded a cytotoxic concentration (CC50) at 3 days in data set [1] of 7.9 µg/mL (≈ 23.4 µM). In addition, the EC50 in the data set on BVDV-1 (strain PE515) (read-out: EC50) turned out to be 1.25 µg/mL (≈ 3.71 µM). Further, the “SI: Selectivity index (ratio of CC50 to EC50)” value in the data set with BVDV-1 (strain PE515) is recorded as “±6”.
`CCOC(=O)c1cc2c3n(ccc-2n1)CC(CCl)=N3` displayed a melting point of 270 to 272 °C.
In the case of `CCOC(=O)c1cc2c3n(ccc-2n1)CC(Br)=N3` [Compound 7i, Ethyl 2-bromoimidazo[1,2-a]pyrrolo[3,2-c]pyridine-8-carboxylate], the half-maximal cytotoxic concentration (CC50) at 3 days in data set [1] is greater than 50 µg/mL. The EC50 in the data set with BVDV-1 (strain PE515) (read-out: EC50) stood at 1.5 µg/mL (≈ 4.87 µM). Moreover, the “SI: Selectivity index (ratio of CC50 to EC50)” value in the data set on BVDV-1 (strain PE515) is reported as greater than 33.
`CCOC(=O)n1c(-c2ccc(OC)cc2)cc2c1ccn1cc(C)nc21` showed a melting point of 158 to 159 °C.
As to `CC1=Nc2c3cc(C(=O)O)nc-3ccn2C1` [Compound 15, 2-Methylimidazo[1,2-a]pyrrolo[3,2-c]pyridine-8-carboxylic acid], in data set [1], the CC50 at 3 days was greater than 100 µg/mL. The same compound had a CC50 with MDBK cells greater than 100 µg/mL. Also, the concentration for a half-maximal effect (EC50) with BVDV-1 (strain PE515) (read-out: EC50) came to 0.5 µg/mL (≈ 2.32 µM).
`CCOC(=O)c1cc2c3n(ccc-2n1)CC(C)=N3` [Compound 7b, Ethyl 2-methylimidazo[1,2-a]pyrrolo[3,2-c]pyridine-8-carboxylate]: the melting point was 201 to 203 °C. For the same compound, the midpoint of cytotoxicity in data set [1], the CC50 at 3 days, lay at 65 µg/mL (≈ 267 µM). The EC50 in the data set with BVDV-1 (strain PE515) (read-out: EC50) was 0.8 µg/mL (≈ 3.29 µM). In addition, in the data set with BVDV-1 (strain PE515), the “SI: Selectivity index (ratio of CC50 to EC50)” value is given as “±81”.
On the same counts, the results for `CCOC(=O)c1cc2c3n(ccc-2n1)CC(CO)=N3` [Compound 11, Ethyl 2-hydroxymethylimidazo[1,2-a]pyrrolo[3,2-c]pyridine-8-carboxylate] are 227 to 229 °C, 87 µg/mL (≈ 336 µM), 9 µg/mL (≈ 34.7 µM) and “±10”.
`CCCCc1cc2c3n(ccc-2n1)CC(C)=N3` showed a melting point of 162 °C.
